Experimental data reported in patent US5494933A, “Treatment” (Beecham-Wuelfing GmbH & Co. KG, priority 1986, dated 1996).

Tests used:
[1] = tested on: heart rate, systolic left ventricular pressure, left ventricular dp/dt max and mean arterial blood pressure; assay: Haemodynamic profile in anaesthetized rats; assay type: in vivo, rat; conditions: for % effect of Dhr 20 on dp/dtmax: left ventricular
From the text: 2. Haemodynamic profile in anaesthetized rats.
The effect of compounds of the invention on heart rate, systolic left ventricular pressure, left ventricular dp/dt max and mean arterial blood pressure was investigated so as to obtain information on the anti-anginal potential of these compounds, by reducing the oxygen demand of the ischaemic heart.
**LVP = systolic left ventricular pressure
***BP = mean arterial blood pressure
^a = i.d. administration

coronary spasm = assay: Vasopressin test in anaesthetized rats (coronary vasodilating activity, coronary spasm); assay type: in vivo, rat; conditions: 0.6 g/kg i.d., vasopressin (Lysopressin) 1 I.U./kg i.v.
Description: 1. Coronary Vasodilating activity
a) Vasopressin test in anaesthetized rats
Vasopressin (Lysopressin: 1 I.U./kg) was administered intravenously in order to provoke coronary spasm (ST-segment elevation in the ECG).
The ability of test compounds to reduce coronary spasm is taken as a measure of their anti-anginal potential in spasm-induced angina pectoris. (Ref. Drug.Res. 33(11), 8,1117-1121 (1983)).

coronary artery = molecular target: T1, coronary artery (Sus scrofa, UniProt A0A8W4FNC0); assay: Pig isolated coronary artery, Ca++-antagonistic activity
T1 construct: Coronary artery spirals were prepared; from tissue; host or cells: pig coronary artery spirals
Description: b) Pig isolated coronary artery
Coronary artery spirals were prepared and in lengths from 1.5 to 2 cm were incubated at 32.5° in Ca^++ -free Krebs-Henseleit solution containing tris buffer and 60 mM KCl. Ca^++ in concentrations ranging from 0.1 mM-7 mM was given every 10 min to produce a control dose-responsecurve. Following a wash out circle using EDTA, either placebo or drug was administered, and an equilibration time of 30 minutes allowed before the second dose-response curve was made. Dose-ratios were calculated at ED50 -levels, from these the log KB was calculated.

[2] = anaesthetized rat, i.v., at Dhr 20

T1 sequence (A0A8W4FNC0 1-2067): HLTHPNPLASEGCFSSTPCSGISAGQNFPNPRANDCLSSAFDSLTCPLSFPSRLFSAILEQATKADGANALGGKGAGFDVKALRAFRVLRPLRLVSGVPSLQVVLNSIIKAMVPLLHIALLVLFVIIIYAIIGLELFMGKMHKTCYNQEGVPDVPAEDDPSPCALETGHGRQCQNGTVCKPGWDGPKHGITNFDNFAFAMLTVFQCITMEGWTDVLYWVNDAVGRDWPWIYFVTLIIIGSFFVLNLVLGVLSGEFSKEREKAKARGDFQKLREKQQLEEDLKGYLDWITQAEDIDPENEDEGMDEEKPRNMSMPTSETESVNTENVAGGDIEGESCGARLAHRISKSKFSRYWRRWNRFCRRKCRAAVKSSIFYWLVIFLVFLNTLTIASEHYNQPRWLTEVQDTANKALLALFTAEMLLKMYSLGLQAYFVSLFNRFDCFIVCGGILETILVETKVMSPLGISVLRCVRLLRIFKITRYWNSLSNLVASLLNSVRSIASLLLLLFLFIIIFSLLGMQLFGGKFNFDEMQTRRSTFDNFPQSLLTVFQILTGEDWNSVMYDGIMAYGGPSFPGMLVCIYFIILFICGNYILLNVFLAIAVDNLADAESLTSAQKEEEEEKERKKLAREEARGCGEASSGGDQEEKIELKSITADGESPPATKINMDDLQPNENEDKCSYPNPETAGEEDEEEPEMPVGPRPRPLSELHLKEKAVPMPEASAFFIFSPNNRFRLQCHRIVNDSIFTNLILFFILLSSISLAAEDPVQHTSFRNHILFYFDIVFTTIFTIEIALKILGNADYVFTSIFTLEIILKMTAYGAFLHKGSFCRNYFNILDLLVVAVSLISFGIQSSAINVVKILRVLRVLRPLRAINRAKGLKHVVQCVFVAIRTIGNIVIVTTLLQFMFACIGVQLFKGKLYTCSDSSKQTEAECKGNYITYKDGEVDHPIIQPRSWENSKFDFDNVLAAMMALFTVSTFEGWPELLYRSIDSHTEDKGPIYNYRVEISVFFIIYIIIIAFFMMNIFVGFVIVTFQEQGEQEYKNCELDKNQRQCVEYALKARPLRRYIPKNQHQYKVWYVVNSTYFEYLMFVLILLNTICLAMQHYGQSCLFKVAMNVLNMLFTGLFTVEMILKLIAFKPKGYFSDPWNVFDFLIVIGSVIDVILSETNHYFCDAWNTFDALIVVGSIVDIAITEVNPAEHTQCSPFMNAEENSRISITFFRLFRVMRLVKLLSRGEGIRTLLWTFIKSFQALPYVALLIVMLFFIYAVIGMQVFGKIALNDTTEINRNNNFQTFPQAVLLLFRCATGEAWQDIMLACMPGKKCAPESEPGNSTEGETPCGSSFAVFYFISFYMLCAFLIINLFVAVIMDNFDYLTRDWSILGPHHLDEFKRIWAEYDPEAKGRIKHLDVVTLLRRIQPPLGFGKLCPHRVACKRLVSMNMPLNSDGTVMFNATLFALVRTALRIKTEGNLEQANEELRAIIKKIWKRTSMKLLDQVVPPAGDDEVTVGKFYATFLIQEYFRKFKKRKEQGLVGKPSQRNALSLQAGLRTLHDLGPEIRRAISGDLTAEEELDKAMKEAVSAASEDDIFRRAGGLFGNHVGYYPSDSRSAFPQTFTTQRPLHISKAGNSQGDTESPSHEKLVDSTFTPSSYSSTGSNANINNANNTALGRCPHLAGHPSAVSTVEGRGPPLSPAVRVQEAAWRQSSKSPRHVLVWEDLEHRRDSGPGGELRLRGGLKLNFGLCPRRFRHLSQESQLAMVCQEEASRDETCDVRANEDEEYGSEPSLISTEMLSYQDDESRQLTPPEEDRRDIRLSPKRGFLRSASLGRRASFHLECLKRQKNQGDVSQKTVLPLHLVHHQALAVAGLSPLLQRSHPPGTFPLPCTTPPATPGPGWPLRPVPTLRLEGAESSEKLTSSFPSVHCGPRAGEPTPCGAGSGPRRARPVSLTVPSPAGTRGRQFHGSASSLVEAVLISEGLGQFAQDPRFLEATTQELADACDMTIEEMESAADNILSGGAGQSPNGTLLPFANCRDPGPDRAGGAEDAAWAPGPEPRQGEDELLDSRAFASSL

Row | Structure (SMILES) | i.v. duration of action on heart rate ([1]; anaesthetized rat, i.v.) | % effect of Dhr 20 on dp/dtmax [1, 2] | further results
1 | COc1ccc(CCN(C)CCCN(Cc2ccc([N+](=O)[O-])cc2)c2ccc(OC)c(OC)c2)cc1OC [Example E6, (N-[3,4-Dimethoxyphenyl]-N-3-[N'-2-(3,4-dimethoxyphenyl)-ethyl-N'-methylamino]-propyl)-(4-nitro)-benzylamine] | 60 min | -5% | –
2 | COc1ccc(CCN(C)CCCN(c2ccc(OC)c(OC)c2)c2ncc([N+](=O)[O-])cc2[N+](=O)[O-])cc1OC [Example E44, (N-[3,4-Dimethoxyphenyl]-N-3-[N'-2-(3,4-dimethoxyphenyl)-ethyl-N'-methyl-amino]-propyl)-3,5-dinitro-2-amino-pyridine] | 10 min | -8% | Dhr 20 (i.v. dose which reduces heart rate by ca. 20%) ([1]; anaesthetized rat, i.v.): 3.2; % effect of Dhr 20 on BP (mean arterial blood pressure) [1, 2]: -10%; % effect of Dhr 20 on LVP (systolic left ventricular pressure) [1, 2]: -6%
3 | COc1ccc(CCN(C)CCCN(C(=O)NCc2ccccc2)c2ccc(OC)c(OC)c2)cc1OC [Example E30, (N-[3,4-Dimethoxyphenyl]-N-3-[N'-2-(3,4-dimethoxyphenyl)-ethyl-N'-methylamino]-propyl)-N"-benzylurea] | 10 min | -20% | –
4 | CCCCCN(CCCN(C)CCc1ccc(OC)c(OC)c1)c1ccc(OC)c(OC)c1 [Example E34, (N-[3,4-Dimethoxyphenyl]-N-3-[N'-2-(3,4-dimethoxyphenyl)-ethyl-N'-methylamino]-propyl)-n-pentylamine] | 5 to 10 min | -10% | –
5 | CCCCC(=O)N(CCCN(C)CCc1ccc(OC)c(OC)c1)c1ccc(OC)c(OC)c1 [Example E12, (N-[3,4-Dimethoxyphenyl]-N-3-[N'-2-(3,4-dimethoxyphenyl)-ethyl-N'-methylamino]-propyl)-pentanoic acid amide] | 10 min | -6% | –
6 | COc1ccc(CCN(C)CCCN(Cc2ccccc2[N+](=O)[O-])c2ccc(OC)c(OC)c2)cc1OC [Example E1, (N-[3,4-Dimethoxyphenyl]-N-3-[N'-2-(3,4-dimethoxyphenyl)-ethyl-N'-methylamino]-propyl)-(2-nitro)-benzylamine] | 10 min | -3% | activity against coronary spasm (ST-segment elevation in the ECG) (coronary spasm): active against coronary spasm
7 | COc1ccc(CCN(C)CCCN(C(=O)CCc2ccccc2)c2ccc(OC)c(OC)c2)cc1OC [Example E15, (N-[3,4-Dimethoxyphenyl]-N-3-[N'-2-(3,4-dimethoxyphenyl)-ethyl-N'-methylamino]-propyl)-(3-phenyl)propanoic acid amide] | 10 min | -7% | –
8 | COc1ccc(CCN(C)CCCN(C(=O)Oc2ccccc2)c2ccc(OC)c(OC)c2)cc1OC [Example E25, (N-[3,4-Dimethoxyphenyl]-N-3-[N'-2-(3,4-dimethoxyphenyl)-ethyl-N'-methylamino]-propyl)-phenyl-urethane] | 10 min | -2% | Dhr 20 (i.v. dose which reduces heart rate by ca. 20%) ([1]; anaesthetized rat, i.v.): 0.8; % effect of Dhr 20 on BP (mean arterial blood pressure) [1, 2]: -14%; % effect of Dhr 20 on LVP (systolic left ventricular pressure) [1, 2]: -10%
9 | COc1ccc(CCN(C)CCCN(Cc2ccccc2)c2ccc(OC)c(OC)c2)cc1OC [Example E4, (N-[3,4-Dimethoxyphenyl]-N-3-[N'-2-(3,4-dimethoxyphenyl)-ethyl-N'-methylamino]-propyl)-benzylamine] | 10 min | -12% | Kb (coronary artery; pig coronary artery spirals, 60 mM KCl, Ca++ 0.1 mM-7 mM, 30 min equilibration, dose-ratios at ED50 levels): 1.41 µM; Ca++-antagonistic activity in coronary artery in vitro (coronary artery; pig coronary artery, from log KB): moderate to medium
10 | CCCCOC(=O)N(CCCN(C)CCc1ccc(OC)c(OC)c1)c1ccc(OC)c(OC)c1 [Example E24, (N-[3,4-Dimethoxyphenyl]-N-3-[N'-2-(3,4-dimethoxyphenyl)-ethyl-N'methylamino]-propyl)-n-butyl-urethane] | 10 min | -8% | –
11 | COc1ccc(CCN(C)CCN(C(=O)NC(C)c2ccccc2)c2ccc(OC)c(OC)c2)cc1OC (stereo not shown) [Example E32] | 10 min | -3% | –
12 | COc1ccc(CCN(C)CCCN(C(=O)c2ccc([N+](=O)[O-])cc2)c2ccc(OC)c(OC)c2)cc1OC [Example E50, (N-[3,4-Dimethoxyphenyl]-N-3-[N'-2-(3,4-dimethoxyphenyl)-ethyl-N'-methyl-amino]-propyl)-4-nitrobenzamide] | – | – | % effect of Dhr 20 on BP (mean arterial blood pressure) ([1]; rat, in vivo): -6%; duration of action on heart rate ([1]; rat, in vivo): > 90 min; % effect of Dhr 20 on BP (mean arterial blood pressure) ([1]; rat, in vivo, iv): -1%; % effect of Dhr 20 on LVP (systolic left ventricular pressure) ([1]; rat, in vivo, iv): -1%
13 | CCCNC(=O)N(CCCN(C)CCc1ccc(OC)c(OC)c1)c1ccc(OC)c(OC)c1 [Example E27, (N-[3,4-Dimethoxyphenyl]-N-3-[N'-2-(3,4-dimethoxyphenyl)-ethyl-N'-methylamino]-propyl)-N"-n-propyl-urea] | 5 to 10 min | -1% | –
